{
  "source": "patent US20180116975A1",
  "about": "“COMPOSITIONS AND COMBINATIONS FOR THE TREATMENT OF ANGIOGENESIS DISEASES AND DISORDERS” (BIOMAS LTD., priority 2015, published 2018)",
  "molecules": {"B1": {"name": "Ranibizumab (antibody, chains of the INN, looked up, V domains shown)", "VH": "EVQLVESGGGLVQPGGSLRLSCAASGYDFTHYGMNWVRQAPGKGLEWVGWINTYTGEPTYAADFKRRFTFSLDTSKSTAYLQMNSLRAEDTAVYYCAKYPYYYGTSHWYFDVWGQGTLVTVSS", "VL": "DIQLTQSPSSLSASVGDRVTITCSASQDISNYLNWYQQKPGKAPKVLIYFTSSLHSGVPSRFSGSGSGTDFTLTISSLQPEDFATYYCQQYSTVPWTFGQGTKVEIK"}},
  "tested_on": "patients with AMD (PED, subretinal fluid)",
  "experiment": "Clinical study (compassionate treatment): oral AS101 in conjunction with intra vitreal anti VEGF injections",
  "type": "in vivo, human",
  "excerpt": "Patients were orally administered with AS101/Formula I in conjunction with intraocular injections of intra vitreal anti VEGF. […] A special compassionate approval has been given by the local committee of ethics in Meir medical center, Kfar Saba, and the Ministry of Health in Israel to treat these two patients with orally taken AS101.\nPatient underwent an additional intra-vitreal Lucentis injection and from this point examination continued every month with treatment in PRN mode. Until Jul. 26, 2012 the patient underwent 9 intra-vitreal Lucentis injections. On January 2013 treatment was switched to Aflibercept (Eylea) and the patient received 3 montly injection and an additional injection on Jun. 18, 2013.\nThe patient received an intravitreal triancinolon acetonid injection followed by the 3rd lucentis one week later. […] The patient received 2 additional Lucentis injections and on Nov. 27, 2012 treatment was switched to Eylea when it became available in Israel. The patient received 8 monthly Eylea injections, the last one on Jun. 18, 2013.\nOn Jul. 7, 2013, the patient started to receive 12 drops of AS101 every day orally. On Aug.\nExcept for one occasion of a 5 month interval between 2 injections, the patient received an injection every month. […] Four days after the last Lucentis injection, on 13 Aug. 2013 the patient started to take 12 drops of AS101 orally.",
  "data": [
    {"molecule": "Cl[TeH]1(Cl)(Cl)OCCO1", "note": "[AS101]", "values": [
      {"measurement": "OCT finding after discontinuation of AS101", "setting": "Case 1, 3 weeks after AS101 was discontinued", "value": "development of new subretinal fluid in both eyes"},
      {"measurement": "time without need for additional injections", "setting": "Case 1, left eye, until discontinuation of AS101", "value": 8, "unit": "months"},
      {"measurement": "subretinal fluid at the base of the PED (OCT)", "setting": "Case 1, left eye, 12 drops AS101 daily orally, one month after Lucentis with triamcinilon acetonide injections", "value": "decrease of the amount of the subretinal fluid"},
      {"measurement": "subretinal fluid at the slope of the PED (OCT)", "setting": "Case 1, left eye, next 3 monthly OCT tests after cataract surgery, on AS101", "value": "absorbed for the first time since it appeared"},
      {"measurement": "time without need for intravitreal injections", "setting": "Case 1, right eye, until discontinuation of AS101", "value": 10, "unit": "months"},
      {"measurement": "adverse events", "setting": "Case 2, 12 drops AS101 orally", "value": "No adverse events were reported"},
      {"measurement": "last visual acuity", "setting": "Case 2, left eye, Nov. 11, 2014, on AS101 (20/200 at diagnosis)", "value": "20/50"},
      {"measurement": "last visual acuity", "setting": "Case 2, right eye, Nov. 11, 2014, on AS101", "value": "20/30"},
      {"measurement": "Angiogenesis inhibitor injections during treatment according to the invention", "setting": "Patient #1, LE (left eye), in 9 months, oral AS101", "value": "LE: 1 injection in 9"},
      {"measurement": "maximal time interval between injections", "setting": "Patient #2, during AS 101 treatment with Lucentis", "value": "injections: 14 months"},
      {"measurement": "Angiogenesis inhibitor injections during treatment according to the invention", "setting": "Patient #2, in 27 months, 12 drops AS101 orally, Lucentis PRN", "value": 4, "unit": "injections"},
      {"measurement": "Angiogenesis inhibitor injections during treatment according to the invention", "setting": "Patient #2, in 27 months, 12 drops AS101 orally, Lucentis PRN, listed as AS 101", "value": 4, "unit": "injections in 27"},
      {"measurement": "progression of drusens/dry AMD to Wet AMD", "setting": "observation during the compassionate treatment", "value": "did not developed to Wet AMD"},
      {"measurement": "time intervals between Ranibizumab injections", "setting": "patient suffering from AMD, otherwise injected every month, with AS-101", "value": 9, "unit": "months"}
    ]},
    {"molecule": "Aflibercept [Eylea, reference compound]", "values": [
      {"measurement": "amount of the subretinal fluid over the peak of the PED and at the slope", "setting": "Case 1, left eye, 8 monthly injections, before AS101", "value": "did not change"}
    ]},
    {"molecule": "B1", "values": [
      {"measurement": "subretinal fluid (OCT)", "setting": "Case 1, right eye, 3 intra-vitreal injections in one month intervals, before AS101", "value": "resolution of the subretinal fluid"}
    ]}
  ]
}
